Experimental findings from patent publication US5457097A, “Androst-4-eno[4,5-b]pyrrole derivatives” (Farmitalia Carlo Erba S.r.l., priority 1992, dated 1995) are described below.

This experiment has as its target T1, human placental aromatase (Homo sapiens, UniProt P11511).
T1 construct: utilizes the human placental microsomal fraction as enzyme source; from tissue; host or cells: human placenta, microsomal fraction
T1 sequence (P11511 1-503): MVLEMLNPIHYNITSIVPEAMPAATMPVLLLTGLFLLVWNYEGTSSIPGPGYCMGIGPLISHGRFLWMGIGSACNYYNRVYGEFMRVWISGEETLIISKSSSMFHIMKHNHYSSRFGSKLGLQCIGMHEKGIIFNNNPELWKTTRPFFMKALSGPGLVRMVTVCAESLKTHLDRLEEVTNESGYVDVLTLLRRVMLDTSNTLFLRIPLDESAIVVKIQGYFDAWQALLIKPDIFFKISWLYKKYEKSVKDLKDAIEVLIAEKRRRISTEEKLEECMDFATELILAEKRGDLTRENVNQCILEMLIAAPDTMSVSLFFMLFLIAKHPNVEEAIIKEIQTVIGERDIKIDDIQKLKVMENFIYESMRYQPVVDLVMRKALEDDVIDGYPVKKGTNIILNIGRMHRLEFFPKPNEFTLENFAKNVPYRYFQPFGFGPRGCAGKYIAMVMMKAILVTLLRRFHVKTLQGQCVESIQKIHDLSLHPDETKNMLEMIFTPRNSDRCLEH
Nature of the experiment: in vitro aromatase inhibition test (Thompson and Siiteri), 3H2O release from [1β-3H]androstenedione. Format: biochemical. As to conditions: human placental microsomal fraction; [1β-3H]androstenedione 50 nM, NADPH, 15 min incubation at 37° C.; read-out: concentration producing 50% inhibition of human placental aromatase (IC50). The protocol: The concentration of each compound required to reduce control aromatase activity by 50% (IC50) was determined by plotting % inhibition versus log of inhibitor concentration.

For `C[C@]12C=CC(=O)c3[nH]cc(c31)C[C@@H]1[C@@H]2CC[C@]2(C)C(=O)CC[C@@H]12` [3,17-dioxo-1'H-androsta-1,4-dieno[4,5-b]pyrrole], the IC50 was found to be 120 nM.
